Article PMC11356571, “The Comparative Metabolism of a Novel Hepatocellular Carcinoma Therapeutic Agent, 2,3-Diamino-N-(4-(benzo[d]thiazol-2-yl)phenyl)propanamide, in Human and Animal Hepatocytes” (Metabolites, 2024)

What was measured:
Type in all cases: in vitro ADME
[1] = Metabolic stability in monkey hepatocytes; details: cryopreserved hepatocytes
Procedure: (§1) Cryopreserved hepatocytes were carefully thawed in a 37 °C water bath for approximately 1 min, and transferred to a tube containing pre-warmed thawing medium. The supernatants were removed and the pellets were resuspended in KHB at a final cell density of 1 × 10^6 cells/mL, based on hemocytometer counting using trypan blue exclusion. A ETN101 solution was prepared by dissolving ETN101 in water at 4 mM and diluted by KHB at the concentration of 4 μM of ETN101. Sixty microliters each of hepatocyte suspensions and 4 μM of ETN101 were added in a 96-well plate and incubated for 0, 5, 15, 30, and 45 min at 37 °C in a CO2 incubator. All incubations were conducted in triplicates. Reactions were terminated by the addition of 120 μL of ice-cold acetonitrile and followed by vortex mixing. After centrifugation at 13,000 rpm for 8 min at 4 °C, 5 μL of internal standard (IS, camptothecin in acetonitrile at 780 ng/mL) was added to 60 μL of supernatant. A 2 μL aliquot was injected into the LC-MS/MS system. The reliability of the analysis was confirmed by incorporating three different levels of quality control samples at the beginning and end of each analytical batch. The disappearance rate (k) of ETN101 was calculated by determined peak area ratio of ETN101 to IS over incubation period. Subsequently, half-life (t1/2), intrinsic clearance (Clint), and intrinsic hepatic clearance (Clint,hep) of ETN101 in human and animal hepatocytes were calculated using the following equation [34]: t1/2(min)=ln2/−k(elimination slope) ClintμL/min/10^6 cells=ln2/t1/2×μL incubation/hepatocytes (10^6 cells) Clint,hepmL/min/kg=Clint/1000×A×10^6 cells/g liver×B g liver/kg body weight […]
(§2) For the metabolic stability assay, an LC-MS/MS system was employed, consisting of an Agilent 1260 series HPLC system (Agilent Technologies Inc., Santa Clara, CA, USA) coupled to an API 4000 mass spectrometer (AB SCIEX, Concord, Vaughan, ON, Canada) equipped with a turbo electrospray interface. […] ETN101 and IS were detected using multiple reaction monitoring (MRM) mode under positive electrospray ionization (ESI). […]

[2] = Metabolic stability in mouse hepatocytes; details: cryopreserved hepatocytes
Procedure: as §1, §2

[3] = system: NAT1 in human liver cytosol; assay: Human liver cytosol incubation with NAT1 inhibitor caffeic acid; details: 30 min at 37 °C, M1 1 μM
Procedure: For the chemical inhibition assay, human liver cytosol was prepared in 0.05 M potassium phosphate buffer at a concentration of 1 mg/mL prior to use. A 1 μL of M1 (final concentration: 1 μM) solution was spiked in 223 μL of human liver cytosol preparations. One microliter each of caffeic acid and 1-aminobenzotriazole were added and incubated as NAT1 and NAT2 inhibitors, respectively. The final concentrations of the NAT inhibitors were 0, 100, and 1000 μM in each incubate. After 5 min of pre-warming of the incubates at 37 °C, the metabolic reaction was initiated by adding 25 μL of acetyl-CoA regenerating system to the incubates. The samples were incubated in triplicate for 0 min or 30 min at 37 °C. The reaction was stopped by adding 250 μL of ice-cold acetonitrile containing the IS (camptothecin, 500 ng/mL) and vortex-mixing. Following centrifugation at 13,000 rpm for 5 min at 4 °C, a 2 μL aliquot of the supernatant was injected into the LC-MS/MS system. The percentage of remaining M1 and the formation of M2 were evaluated to determine the involvement of the NAT isozyme in N-acetylation of M1.
For enzyme characterization, an Agilent 6460 triple quadrupole mass spectrometer coupled with a 1260 HPLC system (Agilent Technologies, Santa Clara, CA, USA) and a Kinetex Halo® C18 column (2.7 μm, 2.1 × 50 mm, Advanced Material Technology, Wilmington, DE, USA) were used for chromatographic separation. The mobile phases comprised 0.1% (v/v) formic acid in water (mobile phase A) and 0.1% formic acid (v/v) in acetonitrile (mobile phase B). The mobile phase flowed at a rate of 0.3 mL/min, and the gradient elution program proceeded as follows: starting with 10% B for 0.5 min, a linear increase to 90% B for 0.2 min, maintaining 90% B for 1.5 min, and then returning to initial conditions for 0.2 min. Subsequently, the column was reconditioned using 10% B for 2.6 min. The column and auto-sampler were maintained at 40 °C and 4 °C, respectively. ETN101, M1, and M2 were detected via MRM using ESI in the positive mode. […]

| half-life at 2 µM ([1]; 45 min incubation at 37 °C) | hepatocyte CLint at 2 µM ([1]; 45 min incubation at 37 °C) | CLint scaled at 2 µM ([1]; scaled from Clint) | half-life at 2 µM ([2]; 45 min incubation at 37 °C) | hepatocyte CLint at 2 µM ([2]; 45 min incubation at 37 °C) | CLint scaled at 2 µM ([2]; scaled from Clint) | Structure (SMILES) | Percentage remaining of M1 ([3]; caffeic acid 0 μM) | Percentage remaining of M1 ([3]; caffeic acid 100 μM) | Percentage remaining of M1 ([3]; caffeic acid 1000 μM) |
| --- | --- | --- | --- | --- | --- | --- | --- | --- | --- |
| 1.22 h | 19 µL/min/1e6 cells | 45.7 mL/min/kg | 2.01 h | 11.5 µL/min/1e6 cells | 136 mL/min/kg | NCC(N)C(=O)Nc1ccc(-c2nc3ccccc3s2)cc1 (stereo not drawn) [ETN101, 2,3-diamino-N-(4-(benzo[d]thiazol-2-yl)phenyl)propanamide] | – | – | – |
| – | – | – | – | – | – | Nc1ccc(-c2nc3ccccc3s2)cc1 [M1, 2-(4-aminophenyl)benzothiazole] | 87.2% | 89.6% | 94.4% |
